Where two headings read alike, the source gives them in different places.
Tests used:
HLA-DR1 [1] = target: T1, HLA-DR1 (Homo sapiens, UniProt P01903+P01911, A100R/D57E/F55L/F60I/F76Y/I96L/L162R/M171V/P40L/Q125E/R42F/V115G/Y59C); settings: cited from earlier work; for known binding of peptide to HLA-DR1: Sidney et al., 2002
HLA-DR1 [2] = target: T1, HLA-DR1; format: binding; design: biotin (biotinylated)
HLA-DR2 = HLA-DR2 (Homo sapiens, UniProt P01903+P01911); settings: cited from earlier work
HLA-DRB1*01:01 = HLA-DRB1*01:01 (Homo sapiens, UniProt P01903+P01911, A100R/D57E/F55L/F60I/F76Y/I96L/L162R/M171V/P40L/Q125E/R42F/V115G/Y59C); assay: Peptide-MHC binding assay: conjugate incubated with recombinant MHC, captured with anti-HLA-DR antibody (L243) beads, qPCR
HLA-DR3 [3] = system: HLA-DR3
HLA-DR3 [4] = settings: cited from earlier work; for known binding of peptide to HLA-DR3: Sidney et al., 2002

Substance	known affinity of peptide for the HLA-DR1 molecule (HLA-DR1 [1])	affinity of peptide for purified DR2 (HLA-DR2)	enrichment in the DR1 condition compared to beads only (HLA-DRB1*01:01)	binding of peptide-cDNA conjugate to MHC molecule (HLA-DR3 [3])	known binding of peptide to HLA-DR1 (HLA-DR1 [1])	known binding of peptide to HLA-DRB1*01:01 (HLA-DR1 [1])	known binding of peptide to HLA-DR3 (HLA-DR3 [4])	also measured
YPKAVKQNTLKLAT [YP (Y4A)]	low	–	–	–	–	–	–	profile of binding to HLA-DR1 (HLA-DR1 [2]; conjugates incubated and detected as a mixture (3-plex), qPCR): low; profile of binding to HLA-DR1 (HLA-DR1 [2]; conjugates present individually (1-plex), qPCR): low
MBP(85-99): peptide of human myelin basic protein, residues 85-99 (PGSRPHLIRLFSRDA; UniProt P02686 85-99, looked up, fragment)	–	high affinity	–	–	–	–	–	–
MBP(148-162): peptide of human myelin basic protein, residues 148-162 (YLATASTMDHARHGF; UniProt P02686 148-162, looked up, fragment)	–	lower but significant	–	–	–	–	–	–
YPKYVKQNTLKLAT	high	–	~1000 fold	not to the other HLA-DR family member	bind	bind	without cross-binding	enrichment of conjugate binding to DR1 over beads (HLA-DRB1*01:01): ~100 fold; binding of peptide-cDNA conjugate to MHC molecule (HLA-DR1 [2]): bound to the expected MHC molecule; profile of binding to HLA-DR1 (HLA-DR1 [2]): high
YKTIAFDEEARR	–	–	no such enrichment	bound to the expected MHC molecule	without cross-binding	not bind	bind	enrichment of signal in the DR1 condition compared to beads only (DR1): ~1000 fold; known binding of peptide to HLA-DRB1*03:01 (HLA-DR3 [4]): bind; binding of peptide-cDNA conjugate to MHC molecule (HLA-DR1 [2]; biotinylated HLA-DR1, overnight incubation, gel electrophoresis and qPCR readouts): not to the other HLA-DR family member

From US11913952B2, “Methods for detecting peptide/MHC/TCR binding” (Prognosys Biosciences, Inc., priority 2013, dated 2024)
